# Laboratory results published in ChEMBL document CHEMBL5338713, “Discovery of pomalidomide-based PROTACs for selective degradation of histone deacetylase 8” (Eur J Med Chem, 2022).
# Active and inactive are the calls of the source. No cut-off for these calls is given here.
# Target: Protein cereblon/Histone deacetylase 8 (Homo sapiens) (UniProt Q9BY41+Q96SW2)
# Test: PROTAC activity at HDAC8/CRBN in human HCT-116 cells assessed as degradation of HDAC8 at 5 uM by Western blot analysis
# Format: cell-based
# Conditions: not given
# Chain of Protein cereblon/Histone deacetylase 8 (Homo sapiens) (Q96SW2 whole entry, looked up, one chain of several): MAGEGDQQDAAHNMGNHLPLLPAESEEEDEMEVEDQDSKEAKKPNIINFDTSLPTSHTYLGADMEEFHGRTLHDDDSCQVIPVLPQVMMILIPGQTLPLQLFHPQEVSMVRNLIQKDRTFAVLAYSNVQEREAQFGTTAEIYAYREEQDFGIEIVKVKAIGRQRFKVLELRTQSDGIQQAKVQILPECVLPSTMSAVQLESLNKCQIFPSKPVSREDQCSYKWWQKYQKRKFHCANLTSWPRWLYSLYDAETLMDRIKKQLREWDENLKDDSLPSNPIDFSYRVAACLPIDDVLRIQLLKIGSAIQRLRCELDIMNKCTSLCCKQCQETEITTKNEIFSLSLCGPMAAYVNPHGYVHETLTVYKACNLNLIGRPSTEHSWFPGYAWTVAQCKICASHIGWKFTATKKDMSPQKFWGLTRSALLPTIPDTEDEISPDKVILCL
row,Compound,Activity
1,O=C(CCCCOc1ccc(CCNC(=O)c2cccc(C(=O)NOC3CCCCO3)c2)cc1)NCCCCCCNc1cccc2c1C(=O)N(C1CCC(=O)NC1=O)C2=O (configuration not stated),inactive
2,CN1C(=O)CCC(N2C(=O)c3cccc(NCCCCCCNC(=O)CCCCOc4ccc(CCNC(=O)c5cccc(C(=O)NO)c5)cc4)c3C2=O)C1=O (configuration not stated),inactive

# Target: T1, Histone deacetylase 8 (Homo sapiens) (UniProt Q9BY41)
# T1 sequence (whole entry): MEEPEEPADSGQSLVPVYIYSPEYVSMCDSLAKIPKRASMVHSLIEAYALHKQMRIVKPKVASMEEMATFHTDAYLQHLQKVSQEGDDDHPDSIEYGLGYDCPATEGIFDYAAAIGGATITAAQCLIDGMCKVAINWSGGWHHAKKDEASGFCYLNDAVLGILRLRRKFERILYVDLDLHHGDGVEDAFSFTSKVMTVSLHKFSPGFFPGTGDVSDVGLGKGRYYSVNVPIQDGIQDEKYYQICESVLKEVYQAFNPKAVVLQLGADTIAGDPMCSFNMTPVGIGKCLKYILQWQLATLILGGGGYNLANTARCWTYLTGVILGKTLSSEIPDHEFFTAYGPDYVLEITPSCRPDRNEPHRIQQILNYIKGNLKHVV
# Test: Induction of HDAC8 degradation in human HCT-116 cells assessed as maximum degradation at 0.1 to 160 uM measured after 10 hrs by Western blot analysis relative to control
# Format: cell-based
# Conditions: dose 0.1-160 µM
row,Compound,Emax [%]
1,O=C(CCCCOc1ccc(CCNC(=O)c2cccc(C(=O)NO)c2)cc1)NCCCCCCNc1ccc2c(c1)C(=O)N(C1CCC(=O)NC1=O)C2=O (configuration not stated),77
2,O=C1CCC(N2C(=O)c3cccc(N4CCC(N5CCN(C(=O)CCCCOc6ccc(CCNC(=O)c7cccc(C(=O)NO)c7)cc6)CC5)CC4)c3C2=O)C(=O)N1 (configuration not stated),91

# Target: T1, Histone deacetylase 8 (Homo sapiens)
# Test: Induction of HDAC8 degradation in human HCT-116 cells at 5 uM by Western blot analysis relative to control
# Format: cell-based
# Conditions: not given
row,Compound,Activity [%]
1,O=C(CCCCCOc1ccc(CCNC(=O)c2cccc(C(=O)NO)c2)cc1)NCCCCCNc1cccc2c1C(=O)N(C1CCC(=O)NC1=O)C2=O (configuration not stated),51.7
2,O=C(CCCCCCOc1ccc(CCNC(=O)c2cccc(C(=O)NO)c2)cc1)NCCCNc1cccc2c1C(=O)N(C1CCC(=O)NC1=O)C2=O (configuration not stated),30.5
3,O=C1CCC(N2C(=O)c3cccc(N4CCN(CC5CCN(C(=O)CCCCOc6ccc(CCNC(=O)c7cccc(C(=O)NO)c7)cc6)CC5)CC4)c3C2=O)C(=O)N1 (configuration not stated),43.6
4,O=C(CCCCCOc1ccc(CCNC(=O)c2cccc(C(=O)NO)c2)cc1)NCCNc1cccc2c1C(=O)N(C1CCC(=O)NC1=O)C2=O (configuration not stated),72.9
5,O=C(CCCOc1ccc(CCNC(=O)c2cccc(C(=O)NO)c2)cc1)NCCCCCCNc1cccc2c1C(=O)N(C1CCC(=O)NC1=O)C2=O (configuration not stated),49.6
6,O=C(CCCCOc1ccc(CCNC(=O)c2cccc(C(=O)NO)c2)cc1)NCCNc1cccc2c1C(=O)N(C1CCC(=O)NC1=O)C2=O (configuration not stated),52.5
7,O=C(CCCCCCOc1ccc(CCNC(=O)c2cccc(C(=O)NO)c2)cc1)NCCCCNc1cccc2c1C(=O)N(C1CCC(=O)NC1=O)C2=O (configuration not stated),19.8
8,O=C(NO)c1cccc(C(=O)NCCc2ccccc2)c1,-22
9,O=C(CCCCCOc1ccc(CCNC(=O)c2cccc(C(=O)NO)c2)cc1)NCCCNc1cccc2c1C(=O)N(C1CCC(=O)NC1=O)C2=O (configuration not stated),16.9
10,O=C(CCCCCCOc1ccc(CCNC(=O)c2cccc(C(=O)NO)c2)cc1)NCCCCCCNc1cccc2c1C(=O)N(C1CCC(=O)NC1=O)C2=O (configuration not stated),25.6
11,O=C(CCCCCOc1ccc(CCNC(=O)c2cccc(C(=O)NO)c2)cc1)NCCCCCCNc1cccc2c1C(=O)N(C1CCC(=O)NC1=O)C2=O (configuration not stated),45.2
12,O=C(CCCOc1ccc(CCNC(=O)c2cccc(C(=O)NO)c2)cc1)NCCNc1cccc2c1C(=O)N(C1CCC(=O)NC1=O)C2=O (configuration not stated),44.3
13,O=C1CCC(N2C(=O)c3cccc(N4CCN(CC5CN(C(=O)CCCCOc6ccc(CCNC(=O)c7cccc(C(=O)NO)c7)cc6)C5)CC4)c3C2=O)C(=O)N1 (configuration not stated),6.54
14,O=C(CCCOc1ccc(CCNC(=O)c2cccc(C(=O)NO)c2)cc1)NCCCNc1cccc2c1C(=O)N(C1CCC(=O)NC1=O)C2=O (configuration not stated),21.2
15,O=C(CCCCCOc1ccc(CCNC(=O)c2cccc(C(=O)NO)c2)cc1)NCCCCNc1cccc2c1C(=O)N(C1CCC(=O)NC1=O)C2=O (configuration not stated),24.4
16,O=C(CCCCCCOc1ccc(CCNC(=O)c2cccc(C(=O)NO)c2)cc1)NCCNc1cccc2c1C(=O)N(C1CCC(=O)NC1=O)C2=O (configuration not stated),65.2
17,O=C(COc1ccc(CCNC(=O)c2cccc(C(=O)NO)c2)cc1)NCCCCCCNc1cccc2c1C(=O)N(C1CCC(=O)NC1=O)C2=O (configuration not stated),54.5
18,O=C(COc1ccc(CCNC(=O)c2cccc(C(=O)NO)c2)cc1)NCCNc1cccc2c1C(=O)N(C1CCC(=O)NC1=O)C2=O (configuration not stated),25.8

row,Compound,Activity [%]
1,O=C1CCC(N2C(=O)c3cccc(N4CC(N5CCN(C(=O)CCCCOc6ccc(CCNC(=O)c7cccc(C(=O)NO)c7)cc6)CC5)C4)c3C2=O)C(=O)N1 (configuration not stated),59.6
2,O=C1CCC(N2C(=O)c3cccc(N4CCN(C(=O)CCCCOc5ccc(CCNC(=O)c6cccc(C(=O)NO)c6)cc5)CC4)c3C2=O)C(=O)N1 (configuration not stated),57.9
3,O=C(CCCOc1ccc(CCNC(=O)c2cccc(C(=O)NO)c2)cc1)NCCCCCNc1cccc2c1C(=O)N(C1CCC(=O)NC1=O)C2=O (configuration not stated),33.4
4,O=C(COc1ccc(CCNC(=O)c2cccc(C(=O)NO)c2)cc1)NCCCCCNc1cccc2c1C(=O)N(C1CCC(=O)NC1=O)C2=O (configuration not stated),10.7
5,O=C(COc1ccc(CCNC(=O)c2cccc(C(=O)NO)c2)cc1)NCCCNc1cccc2c1C(=O)N(C1CCC(=O)NC1=O)C2=O (configuration not stated),32
6,O=C(CCCCOc1ccc(CCNC(=O)c2cccc(C(=O)NO)c2)cc1)NCCCCCCNc1ccc2c(c1)C(=O)N(C1CCC(=O)NC1=O)C2=O (configuration not stated),68.9
7,O=C(CCCOc1ccc(CCNC(=O)c2cccc(C(=O)NO)c2)cc1)NCCCCNc1cccc2c1C(=O)N(C1CCC(=O)NC1=O)C2=O (configuration not stated),20.8
8,O=C1CCC(N2C(=O)c3cccc(N4CCN(C5CN(C(=O)CCCCOc6ccc(CCNC(=O)c7cccc(C(=O)NO)c7)cc6)C5)CC4)c3C2=O)C(=O)N1 (configuration not stated),39.5
9,O=C(CCCCOc1ccc(CCNC(=O)c2cccc(C(=O)NO)c2)cc1)NCCCCCNc1cccc2c1C(=O)N(C1CCC(=O)NC1=O)C2=O (configuration not stated),72.9
10,O=C1CCC(N2C(=O)c3cccc(N4CC(CN5CCN(C(=O)CCCCOc6ccc(CCNC(=O)c7cccc(C(=O)NO)c7)cc6)CC5)C4)c3C2=O)C(=O)N1 (configuration not stated),56.3
11,O=C(CCCCOc1ccc(CCNC(=O)c2cccc(C(=O)NO)c2)cc1)NCCCCNc1cccc2c1C(=O)N(C1CCC(=O)NC1=O)C2=O (configuration not stated),53
12,O=C(COc1ccc(CCNC(=O)c2cccc(C(=O)NO)c2)cc1)NCCCCNc1cccc2c1C(=O)N(C1CCC(=O)NC1=O)C2=O (configuration not stated),43.6
13,O=C(CCCCCCOc1ccc(CCNC(=O)c2cccc(C(=O)NO)c2)cc1)NCCCCCNc1cccc2c1C(=O)N(C1CCC(=O)NC1=O)C2=O (configuration not stated),23.7
14,O=C1CCC(N2C(=O)c3cccc(N4CCC(N5CCN(C(=O)CCCCOc6ccc(CCNC(=O)c7cccc(C(=O)NO)c7)cc6)CC5)CC4)c3C2=O)C(=O)N1 (configuration not stated),74.4
15,O=C(CCCCOc1ccc(CCNC(=O)c2cccc(C(=O)NO)c2)cc1)NCCCNc1cccc2c1C(=O)N(C1CCC(=O)NC1=O)C2=O (configuration not stated),25.8
16,O=C1CCC(N2C(=O)c3cccc(N4CCN(C5CCN(C(=O)CCCCOc6ccc(CCNC(=O)c7cccc(C(=O)NO)c7)cc6)CC5)CC4)c3C2=O)C(=O)N1 (configuration not stated),43.2
17,Nc1cccc2c1C(=O)N(C1CCC(=O)NC1=O)C2=O (configuration not stated),-11
18,O=C1CCC(N2C(=O)c3cccc(N4CCC(CN5CCN(C(=O)CCCCOc6ccc(CCNC(=O)c7cccc(C(=O)NO)c7)cc6)CC5)CC4)c3C2=O)C(=O)N1 (configuration not stated),48.3

# Target: T2, Histone deacetylase 8 (Homo sapiens, UniProt Q9BY41)
# T2 sequence (Q9BY41 whole entry): T1 sequence (whole entry)
# Test: Induction of HDAC8 degradation in human HCT-116 cells measured after 10 hrs by Western blot analysis
# Format: cell-based
# Conditions: not given
row,Compound,DC50 [nM]
1,O=C(CCCCOc1ccc(CCNC(=O)c2cccc(C(=O)NO)c2)cc1)NCCCCCCNc1ccc2c(c1)C(=O)N(C1CCC(=O)NC1=O)C2=O (configuration not stated),441
2,O=C1CCC(N2C(=O)c3cccc(N4CCC(N5CCN(C(=O)CCCCOc6ccc(CCNC(=O)c7cccc(C(=O)NO)c7)cc6)CC5)CC4)c3C2=O)C(=O)N1 (configuration not stated),876
